# Data reported in patent publication US12596108B2, “Automated lipid exchange-mass spectrometry systems and methods” (ARIZONA BOARD OF REGENTS ON BEHALF OF THE UNIVERSITY OF …, priority 2020, dated 2026).
# Molecular target: T1, AmtB, an E. coli ammonia channel (Escherichia coli, UniProt P69681)
# T1 construct: HIS (polyhistidine) (N, cleaved yes); MBP (N, cleaved yes); TEV site (N, cleaved yes); made in house; host or cells: E. coli
# Test: Lipid exchange-mass spectrometry (LX-MS) between AmtB nanodiscs and tagged empty nanodiscs
# Type: binding
# Conditions: for optimal ratio for AmtB POPC/POPG (isolipid point) / lipid preference of AmtB (in words): LX-MS; for lipid preference of AmtB (in words) / isolipid point (mole fraction where Xp−Xt=0): POPC/POPG nanodiscs; for isolipid point (mole fraction where Xp−Xt=0): exchange at room temperature (21-23° C.) over 2.8 days, sigmoidal fit of Xt versus Xp−Xt
# Description: AmtB, an E. coli ammonia channel, was incorporated into untagged nanodiscs with 50/50 1-palmitoyl-2-oleoyl-sn-glycero-3-phosphocholine (POPC)/1-palmitoyl-2-oleoyl-sn-glycero-3-phospho-(1′-racglycerol) (POPG). Polyhistidine-tagged empty nanodiscs without AmtB were also prepared at various POPC/POPG ratios ranging from 0 to 100% POPC. In one embodiment, the ratios were 0%, 20%, 40%, 50%, 60%, 80%, and 100% POPC Tagged empty nanodiscs were mixed with untagged AmtB nanodiscs, and the mixture was allowed to exchange at room temperature (21-23° C.) over 2.8 days. After exchange, internal standards containing PC and PG lipids with different tail lengths were added, and the total lipid mole fraction of POPC, Xt, was measured (tagged and untagged) by direct infusion MS. Then, the tagged empty nanodiscs were removed by passing the mixture over immobilized metal affinity chromatography (IMAC) beads, and the untagged AmtB nanodiscs were measured alone to determine the lipid mole fraction in the membrane protein nanodiscs, Xp. Preliminary experiments confirmed that the exchange was within experimental error (typically 2-4% absolute mole fraction) by 2.8 days, but a full examination of kinetics was not performed due to limited amounts of sample.
# At high total POPC, AmtB shifted the equilibrium to acquire more POPG in the AmtB nanodiscs. Conversely, at low POPC levels, AmtB shifted the equilibrium to enrich the AmtB nanodiscs in POPC.
# After establishing that AmtB remodels the local membrane environment, Xt versus Xp−Xt was fit to a sigmoidal curve and the x-intercept where Xp−Xt=0 was determined. At this mole fraction, which is termed the isolipid point, the lipid composition of the membrane protein nanodiscs is the same as the empty nanodiscs. The composition of the annular lipids matches the bulk lipid bilayer at the isolipid point.
# The 50% POPC AmtB nanodiscs were mixed with empty nanodiscs assembled with the polyhistidine tagged MSP1E3D1 in POPC/(POPC+POPG) mole fractions of 0, 20, 40, 60, 80, or 100% at a 1:1 molar ratio and a final concentration of 2.3 μM AmtB nanodiscs. To extend the titration to a lower total POPC mole fraction (Xt), the AmtB nanodiscs were mixed with 0% POPC empty nanodiscs at a 1:2.6 molar ratio while keeping the AmtB nanodiscs at 2.3 μM. The mixtures were incubated at room temperature (21-23° C.) for 2.8 days to allow the lipid exchange to reach equilibrium. […] Control experiments were also performed using 50% POPC untagged empty nanodiscs mixed with empty nanodiscs assembled with the polyhistidine-tagged MSP1E3D1 in POPC/(POPC+POPG) mole fractions of 0, 20, 40, 60, 80, or 100% at a 1:1 molar ratio and a final concentration of 2.3 μM MSP as well as at a 1:2.6 molar ratio with 0% nanodiscs.
# After exchanging, tagged empty nanodiscs and untagged (either empty or AmtB) nanodiscs were separated by IMAC using a Ni-NTA His SpinTrap (GE Healthcare). Because small exchange volumes of roughly 16 μL were used, around ⅓ of the 100 μL column volume was removed for a final column volume around 66 μL. The SpinTrap was prepared by three washes of 450 μL loading buffer (20 mM imidazole, 0.2 M ammonium acetate, pH 7.6) to equilibrate the column. Prior to addition to the beads, the imidazole concentration of the exchange mixture was adjusted to 20 mM by adding a 1 M imidazole solution (pH 7.6 adjusted with acetic acid) to limit the non-specific binding of the untagged nanodiscs. Then, the exchange reaction mixture was added to the IMAC beads and allowed to incubate for 1-2 minutes at 4° C. The flow-through was removed by centrifugation at 100 g for 45 seconds, and extra loading buffer of 20 μL was added to the column and washed under the same centrifugation procedures. […] Thus, the first wash was collected for MS analysis to maximize the lipid concentration. Around 20 μL was typically recovered. After separation, the His SpinTrap was cleaned with three washes of 450 μL elution buffer (400 mM imidazole, 0.2 M ammonium acetate, pH 7.8). […]
# T1 sequence (P69681 23-428): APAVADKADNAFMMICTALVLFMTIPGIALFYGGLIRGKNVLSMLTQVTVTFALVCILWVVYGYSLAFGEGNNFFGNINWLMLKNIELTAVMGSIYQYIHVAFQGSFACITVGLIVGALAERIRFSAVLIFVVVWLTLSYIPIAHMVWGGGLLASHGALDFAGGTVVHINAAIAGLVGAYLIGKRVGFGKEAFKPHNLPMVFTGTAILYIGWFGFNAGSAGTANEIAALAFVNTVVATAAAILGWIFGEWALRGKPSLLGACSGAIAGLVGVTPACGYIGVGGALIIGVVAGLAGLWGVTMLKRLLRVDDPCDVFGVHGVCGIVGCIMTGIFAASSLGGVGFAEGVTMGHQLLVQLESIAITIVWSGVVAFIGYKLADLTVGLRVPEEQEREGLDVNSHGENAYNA
SMILES,optimal ratio for AmtB POPC/POPG (isolipid point),lipid preference of AmtB (in words),isolipid point (mole fraction where Xp−Xt=0) [%]
"CCCCCCCC/C=C\CCCCCCCC(=O)O[C@H](COC(=O)CCCCCCCCCCCCCCC)COP(=O)(O)OCC(O)CO (mixture of isomers) [POPG, 1-palmitoyl-2-oleoyl-sn-glycero-3-phospho-(1′-racglycerol)]",76,clear preference for POPG,76±2
"CCCCCCCC/C=C\CCCCCCCC(=O)O[C@H](COC(=O)CCCCCCCCCCCCCCC)COP(=O)([O-])OCC[N+](C)(C)C [POPC, 1-palmitoyl-2-oleoyl-sn-glycero-3-phosphocholine]",24,some affinity for POPC,24±2
